Experimental data: patent publication US20060229233A1, “Compositions and methods for treating neurological disorders” (ID Biomedical Corporation, priority 2004, published 2006)
Marks after values point to notes of the source that are not given here.

How the values were obtained:
[1] = tested on: Tg2576 APP transgenic mice; assay: EAE clinical score in PLP-immunized Tg2576 APP transgenic mice; format: in vivo; conditions: PLP immunization in CFA
Excerpt: In order to determine whether the effect was unique to MOG-induced EAE, EAE was induced with proteolipid protein (PLP) peptide (amino acids 139-151) in CFA. A 76% reduction of staining for Aβ fibrils was found and a 70% reduction in Aβ levels in animals with PLP induced EAE (p<0.02) (See Table 2, FIG. 3A). In order to induce EAE with PLP, Tg2576 mice as described by Hsiao, K. et al., Science 274 (5284):99-102 (1996) were utilized, which are on a B6/SJL background. Similar results were found with Tg2576 mice and J20 immunized mice described by Mucke et al., Ann NY Acad Sci (777) 82-88 (1996), to induce MOG-EAE (See Table 1). […] Of note, there was no difference in the total AS (amyloid) load in J20 mice greater than 13 months in age when compared to Tg2576 mice greater than 16 months of age.
Induction and clinical evaluation of EAE in APP+ mice. (B6D2)F1 or (B6XSJL)F1 APP+ (WT or B-cell deficient μMT) and non-tg littermates were immunized in the hind footpads with 100 μg MOG(35-55), PLP 139-151 or 100 μg β-amyloid peptide (1-40) in CFA. […] Animals were monitored for symptoms of EAE beginning 7 days after immunization and scored as follows: 0, no disease; 1, tail paralysis; 2, hind limb weakness; 3, hind limb paralysis; 4, hind limb plus forelimb paralysis; and 5, moribund.

[2] = tested on: Aβ; assay: Anti-Aβ antibody level (IgG, OD 450) in Tg2576 APP transgenic mice; format: in vivo
Procedure: Antibody levels were measured against Aβ in animals immunized with MOG or PLP to determine if there was cross reactivity with Aβ and Aβ antibody titers as compared to those from animals immunized with Aβ. […] To definitively establish that antibodies were not playing a role, 16-month-old J20 mice bred to μMT B-cell deficient mice were immunized with MOG 35-55 in CFA followed by administration of Pertussis toxin.

[3] = tested on: Aβ40 and Aβ42; assay: Total brain Aβ by ELISA, Tg2576 APP transgenic mice; format: in vivo
Excerpt: (§1) In order to determine whether the effect was unique to MOG-induced EAE, EAE was induced with proteolipid protein (PLP) peptide (amino acids 139-151) in CFA. A 76% reduction of staining for Aβ fibrils was found and a 70% reduction in Aβ levels in animals with PLP induced EAE (p<0.02) (See Table 2, FIG. 3A). In order to induce EAE with PLP, Tg2576 mice as described by Hsiao, K. et al., Science 274 (5284):99-102 (1996) were utilized, which are on a B6/SJL background. Similar results were found with Tg2576 mice and J20 immunized mice described by Mucke et al., Ann NY Acad Sci (777) 82-88 (1996), to induce MOG-EAE (See Table 1). […]
(§2) Amyloid quantification. To quantify amyloid burden, the right hemisphere was extracted in 5.0 M guanidinium-chloride (pH 8) for 3 hours at room temperature. […] Brains were frozen in the presence of OCT paraformaldehyde, cut to 14-μm longitudinal sections used for immunohistological staining and amyloid fibril quantification. Well-defined hippocampal regions (Bregma −1.34), were selected for quantification of the amount of amyloid fibril in plaques using thioflavin-S staining. Images (magnification ×20) from these sections were collected from a 3CCD color video camera and analyzed with appropriate software (NIH; Imaging Research). The amount of amyloid fibril was expressed as a percentage per mm^2 hippocampal region as measured by the software.

[4] = tested on: Aβ fibrils; assay: Thioflavin-S quantification of Aβ fibrils in hippocampus, Tg2576 APP transgenic mice; format: in vivo
Excerpt: as §1, §2

[5] = tested on: activated microglia; assay: Microglia activation (CD11b staining) in PLP-immunized animals; format: in vivo, mice; conditions: PLP immunization; p<0.001
[6] = PLP immunization in CFA, Tg2576 APP transgenic mice

proteolipid protein (PLP) peptide (amino acids 139-151) (CHCLGKWLGHPDK; UniProt P60202 139-151, looked up, fragment)
EAE score [1]: 1.7 ± 0.7 | anti-Aβ antibodies ([2]; PLP immunization): not detected | Anti-Aβ Antibody ([2]; level of OD 450 at titer of 1:500 IgG, Tg2576 APP transgenic mice): 0 OD 450 | Total brain Aβ [3, 6]: 47.7 ± 18.4 ^a ng/ml | reduction in Aβ levels ([3]; PLP induced EAE, Tg2576 mice): 70% | % Area of thioflavin positive Aβ plaques (hippocampus) [4, 6]: 0.68 ± 0.2 ^b % | reduction of staining for Aβ fibrils ([4]; PLP induced EAE, Tg2576 mice): 76% | microglia activation [5]: increased levels of microglia activation
